In ChEMBL document CHEMBL3797178, “Synthesis, antimycobacterial and antibacterial activity of 1-(6-amino-3,5-difluoropyridin-2-yl)fluoroquinolone derivatives containing an oxime functional moiety” (2016):
≈ marks a conversion by molar mass, not a printed value.

Assays:
Format in all cases: functional
[1] = tested on: Mycobacterium tuberculosis; test: Antimycobacterial activity against Mycobacterium tuberculosis H37Rv ATCC 27294 after 3 days by microplate Alamar Blue assay; details: H37Rv ATCC 27294, 72 h
[2] = tested on: Escherichia coli; test: Antibacterial activity against Escherichia coli ATCC 25922 after 18 to 24 hrs by CLSI M100-S11 method
[3] = tested on: Escherichia coli; test: Antibacterial activity against extended-spectrum beta-lactamase-producing Escherichia coli 14-1 after 18 to 24 hrs by CLSI M100-S11 method
[4] = tested on: Escherichia coli; test: Antibacterial activity against extended-spectrum beta-lactamase-producing Escherichia coli 14-2 after 18 to 24 hrs by CLSI M100-S11 method
[5] = tested on: Escherichia coli; test: Antibacterial activity against Escherichia coli 14-1 after 18 to 24 hrs by CLSI M100-S11 method
[6] = tested on: Escherichia coli; test: Antibacterial activity against Escherichia coli 14-2 after 18 to 24 hrs by CLSI M100-S11 method
[7] = tested on: Klebsiella pneumoniae; test: Antibacterial activity against extended-spectrum beta-lactamase-producing Klebsiella pneumoniae 14-17 after 18 to 24 hrs by CLSI M100-S11 method
[8] = tested on: Klebsiella pneumoniae; test: Antibacterial activity against extended-spectrum beta-lactamase-producing Klebsiella pneumoniae 14-18 after 18 to 24 hrs by CLSI M100-S11 method
[9] = tested on: Klebsiella pneumoniae; test: Antibacterial activity against extended-spectrum beta-lactamase-producing Klebsiella pneumoniae 14-19 after 18 to 24 hrs by CLSI M100-S11 method
[10] = tested on: Klebsiella pneumoniae; test: Antibacterial activity against Klebsiella pneumoniae 14-1 after 18 to 24 hrs by CLSI M100-S11 method
[11] = tested on: Klebsiella pneumoniae; test: Antibacterial activity against Klebsiella pneumoniae 14-2 after 18 to 24 hrs by CLSI M100-S11 method
[12] = tested on: Klebsiella pneumoniae; test: Antibacterial activity against Klebsiella pneumoniae 14-3 after 18 to 24 hrs by CLSI M100-S11 method
[13] = tested on: Klebsiella pneumoniae; test: Antibacterial activity against Klebsiella pneumoniae 14-4 after 18 to 24 hrs by CLSI M100-S11 method
[14] = tested on: Pseudomonas aeruginosa; test: Antibacterial activity against Pseudomonas aeruginosa ATCC 27853 after 18 to 24 hrs by CLSI M100-S11 method
[15] = tested on: Pseudomonas aeruginosa; test: Antibacterial activity against Pseudomonas aeruginosa 14-9 after 18 to 24 hrs by CLSI M100-S11 method
[16] = tested on: Pseudomonas aeruginosa; test: Antibacterial activity against Pseudomonas aeruginosa 14-14 after 18 to 24 hrs by CLSI M100-S11 method
[17] = tested on: Pseudomonas aeruginosa; test: Antibacterial activity against Pseudomonas aeruginosa 14-15 after 18 to 24 hrs by CLSI M100-S11 method
[18] = tested on: Pseudomonas aeruginosa; test: Antibacterial activity against Pseudomonas aeruginosa 14-16 after 18 to 24 hrs by CLSI M100-S11 method
[19] = tested on: Pseudomonas aeruginosa; test: Antibacterial activity against Pseudomonas aeruginosa 14-19 after 18 to 24 hrs by CLSI M100-S11 method
[20] = tested on: Staphylococcus aureus; test: Antibacterial activity against Staphylococcus aureus CMCC 26003 after 18 to 24 hrs by CLSI M100-S11 method
[21] = tested on: Staphylococcus aureus; test: Antibacterial activity against methicillin-sensitive Staphylococcus aureus 14-2 after 18 to 24 hrs by CLSI M100-S11 method
[22] = tested on: Staphylococcus aureus; test: Antibacterial activity against methicillin-sensitive Staphylococcus aureus 14-3 after 18 to 24 hrs by CLSI M100-S11 method
[23] = tested on: Staphylococcus aureus; test: Antibacterial activity against methicillin-sensitive Staphylococcus aureus 14-4 after 18 to 24 hrs by CLSI M100-S11 method
[24] = tested on: Staphylococcus aureus; test: Antibacterial activity against methicillin-resistant Staphylococcus aureus 14-4 after 18 to 24 hrs by CLSI M100-S11 method
[25] = tested on: Staphylococcus aureus; test: Antibacterial activity against methicillin-resistant Staphylococcus aureus 14-5 after 18 to 24 hrs by CLSI M100-S11 method
[26] = tested on: Staphylococcus epidermidis; test: Antibacterial activity against methicillin-sensitive Staphylococcus epidermidis 14-2 after 18 to 24 hrs by CLSI M100-S11 method
[27] = tested on: Staphylococcus epidermidis; test: Antibacterial activity against methicillin-sensitive Staphylococcus epidermidis 14-4 after 18 to 24 hrs by CLSI M100-S11 method
[28] = tested on: Staphylococcus epidermidis; test: Antibacterial activity against methicillin-sensitive Staphylococcus epidermidis 14-6 after 18 to 24 hrs by CLSI M100-S11 method
[29] = tested on: Staphylococcus epidermidis; test: Antibacterial activity against methicillin-resistant Staphylococcus epidermidis 14-22 after 18 to 24 hrs by CLSI M100-S11 method
[30] = tested on: Staphylococcus epidermidis; test: Antibacterial activity against methicillin-resistant Staphylococcus epidermidis 14-37 after 18 to 24 hrs by CLSI M100-S11 method
[31] = tested on: Staphylococcus epidermidis; test: Antibacterial activity against methicillin-resistant Staphylococcus epidermidis 14-39 after 18 to 24 hrs by CLSI M100-S11 method
[32] = tested on: Streptococcus pneumoniae; test: Antibacterial activity against Streptococcus pneumoniae ATCC 19615 after 18 to 24 hrs by CLSI M100-S11 method
[33] = tested on: Enterococcus faecium; test: Antibacterial activity against Enterococcus faecium 14-1 after 18 to 24 hrs by CLSI M100-S11 method
[34] = tested on: Enterococcus faecium; test: Antibacterial activity against Enterococcus faecium 14-2 after 18 to 24 hrs by CLSI M100-S11 method
[35] = tested on: Enterococcus faecalis; test: Antibacterial activity against Enterococcus faecalis 14-1 after 18 to 24 hrs by CLSI M100-S11 method
[36] = tested on: Enterococcus faecalis; test: Antibacterial activity against Enterococcus faecalis 14-2 after 18 to 24 hrs by CLSI M100-S11 method
[37] = tested on: Enterococcus faecalis; test: Antibacterial activity against Enterococcus faecalis 14-3 after 18 to 24 hrs by CLSI M100-S11 method

| Compound | MIC [1] | MIC [2] | MIC [3] | MIC [4] | MIC [5] | MIC [6] | MIC [7] | MIC [8] | MIC [9] | MIC [10] | MIC [11] | MIC [12] | MIC [13] | MIC [14] | MIC [15] | MIC [16] | MIC [17] | MIC [18] | MIC [19] | MIC [20] | further results |
| --- | --- | --- | --- | --- | --- | --- | --- | --- | --- | --- | --- | --- | --- | --- | --- | --- | --- | --- | --- | --- | --- |
| CO/N=C1\CN(c2nc3c(cc2F)c(=O)c(C(=O)O)cn3-c2nc(N)c(F)cc2F)CC1CN (stereo not drawn) | 7.13 µg/mL (≈ 14.9 µM) | 2 µg/mL (≈ 4.19 µM) | 16 µg/mL (≈ 33.5 µM) | > 128 µg/mL | 128 µg/mL (≈ 268 µM) | 128 µg/mL (≈ 268 µM) | 128 µg/mL (≈ 268 µM) | 32 µg/mL (≈ 67 µM) | > 128 µg/mL | > 128 µg/mL | > 128 µg/mL | > 128 µg/mL | > 128 µg/mL | 4 µg/mL (≈ 8.38 µM) | 16 µg/mL (≈ 33.5 µM) | 32 µg/mL (≈ 67 µM) | 32 µg/mL (≈ 67 µM) | 32 µg/mL (≈ 67 µM) | 64 µg/mL (≈ 134 µM) | 0.5 µg/mL (≈ 1.05 µM) | MIC [21]: 0.5 µg/mL (≈ 1.05 µM); MIC [22]: 0.5 µg/mL (≈ 1.05 µM); MIC [23]: 0.25 µg/mL (≈ 0.524 µM); MIC [24]: > 128 µg/mL; MIC [25]: 64 µg/mL (≈ 134 µM); MIC [26]: > 128 µg/mL; MIC [27]: 64 µg/mL (≈ 134 µM); MIC [28]: 64 µg/mL (≈ 134 µM); MIC [29]: 64 µg/mL (≈ 134 µM); MIC [30]: 128 µg/mL (≈ 268 µM); MIC [31]: 64 µg/mL (≈ 134 µM); MIC [32]: 64 µg/mL (≈ 134 µM); MIC [33]: > 128 µg/mL; MIC [34]: 64 µg/mL (≈ 134 µM); MIC [35]: 16 µg/mL (≈ 33.5 µM); MIC [36]: 16 µg/mL (≈ 33.5 µM); MIC [37]: 32 µg/mL (≈ 67 µM) |
| CO/N=C1\CCN(c2c(F)cc3c(=O)c(C(=O)O)cn(-c4nc(N)c(F)cc4F)c3c2Cl)CC1N (stereo not drawn) | > 32 µg/mL | 1 µg/mL (≈ 1.96 µM) | 64 µg/mL (≈ 125 µM) | > 128 µg/mL | > 128 µg/mL | > 128 µg/mL | > 128 µg/mL | 128 µg/mL (≈ 251 µM) | > 128 µg/mL | > 128 µg/mL | > 128 µg/mL | > 128 µg/mL | > 128 µg/mL | 16 µg/mL (≈ 31.3 µM) | 64 µg/mL (≈ 125 µM) | 64 µg/mL (≈ 125 µM) | 64 µg/mL (≈ 125 µM) | 128 µg/mL (≈ 251 µM) | 128 µg/mL (≈ 251 µM) | 0.5 µg/mL (≈ 0.979 µM) | MIC [21]: 0.5 µg/mL (≈ 0.979 µM); MIC [22]: 0.25 µg/mL (≈ 0.489 µM); MIC [23]: 0.5 µg/mL (≈ 0.979 µM); MIC [24]: > 128 µg/mL; MIC [25]: > 128 µg/mL; MIC [26]: > 128 µg/mL; MIC [27]: 128 µg/mL (≈ 251 µM); MIC [28]: 128 µg/mL (≈ 251 µM); MIC [29]: > 128 µg/mL; MIC [30]: > 128 µg/mL; MIC [31]: > 128 µg/mL; MIC [32]: 64 µg/mL (≈ 125 µM); MIC [33]: > 128 µg/mL; MIC [34]: 16 µg/mL (≈ 31.3 µM); MIC [35]: > 128 µg/mL; MIC [36]: > 128 µg/mL; MIC [37]: > 128 µg/mL |
| CO/N=C1\CN(c2nc3c(cc2F)c(=O)c(C(=O)O)cn3-c2nc(N)c(F)cc2F)[C@H]1CN | > 32 µg/mL | 2 µg/mL (≈ 4.32 µM) | 64 µg/mL (≈ 138 µM) | > 128 µg/mL | > 128 µg/mL | > 128 µg/mL | > 128 µg/mL | 64 µg/mL (≈ 138 µM) | > 128 µg/mL | > 128 µg/mL | > 128 µg/mL | > 128 µg/mL | > 128 µg/mL | 16 µg/mL (≈ 34.5 µM) | 32 µg/mL (≈ 69.1 µM) | 64 µg/mL (≈ 138 µM) | 64 µg/mL (≈ 138 µM) | 32 µg/mL (≈ 69.1 µM) | 32 µg/mL (≈ 69.1 µM) | 4 µg/mL (≈ 8.63 µM) | MIC [21]: 8 µg/mL (≈ 17.3 µM); MIC [22]: 8 µg/mL (≈ 17.3 µM); MIC [23]: 4 µg/mL (≈ 8.63 µM); MIC [24]: > 128 µg/mL; MIC [25]: > 128 µg/mL; MIC [26]: > 128 µg/mL; MIC [27]: 64 µg/mL (≈ 138 µM); MIC [28]: 64 µg/mL (≈ 138 µM); MIC [29]: > 128 µg/mL; MIC [30]: > 128 µg/mL; MIC [31]: > 128 µg/mL; MIC [32]: 64 µg/mL (≈ 138 µM); MIC [33]: > 128 µg/mL; MIC [34]: 128 µg/mL (≈ 276 µM); MIC [35]: > 128 µg/mL; MIC [36]: > 128 µg/mL; MIC [37]: > 128 µg/mL |
| NCC1CN(c2nc3c(cc2F)c(=O)c(C(=O)O)cn3-c2nc(N)c(F)cc2F)C/C1=N\OCc1ccccc1 (stereo not drawn) | 3.81 µg/mL (≈ 6.88 µM) | 0.5 µg/mL (≈ 0.903 µM) | 8 µg/mL (≈ 14.5 µM) | 128 µg/mL (≈ 231 µM) | 128 µg/mL (≈ 231 µM) | 128 µg/mL (≈ 231 µM) | 64 µg/mL (≈ 116 µM) | 32 µg/mL (≈ 57.8 µM) | 128 µg/mL (≈ 231 µM) | 128 µg/mL (≈ 231 µM) | 128 µg/mL (≈ 231 µM) | 128 µg/mL (≈ 231 µM) | 128 µg/mL (≈ 231 µM) | 8 µg/mL (≈ 14.5 µM) | 32 µg/mL (≈ 57.8 µM) | 32 µg/mL (≈ 57.8 µM) | 32 µg/mL (≈ 57.8 µM) | 32 µg/mL (≈ 57.8 µM) | 32 µg/mL (≈ 57.8 µM) | < 0.008 µg/mL | MIC [21]: 0.015 µg/mL (≈ 0.0271 µM); MIC [22]: 0.25 µg/mL (≈ 0.452 µM); MIC [23]: 0.25 µg/mL (≈ 0.452 µM); MIC [24]: 64 µg/mL (≈ 116 µM); MIC [25]: 128 µg/mL (≈ 231 µM); MIC [26]: 64 µg/mL (≈ 116 µM); MIC [27]: 32 µg/mL (≈ 57.8 µM); MIC [28]: 32 µg/mL (≈ 57.8 µM); MIC [29]: 16 µg/mL (≈ 28.9 µM); MIC [30]: 32 µg/mL (≈ 57.8 µM); MIC [31]: 32 µg/mL (≈ 57.8 µM); MIC [32]: 16 µg/mL (≈ 28.9 µM); MIC [33]: 128 µg/mL (≈ 231 µM); MIC [34]: 16 µg/mL (≈ 28.9 µM); MIC [35]: 8 µg/mL (≈ 14.5 µM); MIC [36]: 16 µg/mL (≈ 28.9 µM); MIC [37]: 16 µg/mL (≈ 28.9 µM) |
